Columns and labels:
Assay type in all cases: cell-based
[1] = tested on: Parental (Ba/F3); assay: Ba/F3 cell proliferation inhibition; details: BaF3; 72 hours, Cell Counting Kit-8
How it was run: (§1)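 GI50 derived from CCK-8 absorbance at 450 nm (2 h development), expressed relative to DMSO vehicle. Cells (parental or T315I-Bcr-Abl Ba/F3, 1×10^4/well) received nine threefold-diluted concentrations, final 0 to 10 μM, for 72 h at 37 °C.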

[2] = tested on: T315I-Bcr-Abl (Ba/F3); assay: Ba/F3 cell proliferation inhibition; details: BaF3; 72 hours, Cell Counting Kit-8
How it was run: as §1

[3] = tested on: T315I-KOPM28 cells; assay: human CML cell proliferation inhibition; details: 72 hours, Cell Counting Kit-8
How it was run: (§2)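 Cell Counting Kit-8 read-out (450 nm, 2 h) after 72 h compound exposure at 37 °C gave GI50 relative to DMSO vehicle. Human CML lines: wild-type Bcr-Abl TCCS and KOPM28, plus T315I-TCCS and T315I-KOPM28; nine 5-fold dilutions, final 0-10 μM.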

[4] = tested on: TCCS cells; assay: human CML cell proliferation inhibition; details: 72 hours, Cell Counting Kit-8
How it was run: as §2

[5] = tested on: T315I-TCCS cells; assay: human CML cell proliferation inhibition; details: 72 hours, Cell Counting Kit-8
How it was run: as §2

[6] = tested on: KOPM28 cells; assay: human CML cell proliferation inhibition; details: 72 hours, Cell Counting Kit-8
How it was run: as §2

GI50 [2] [nM] | SMILES | GI50 [1] [nM] | GI50 [3] [nM] | GI50 [4] [nM] | GI50 [5] [nM] | GI50 [6] [nM]
50 to 500 | Cc1cc(F)c(C(=O)Nc2cc(N3CCN(C)C(=O)C3)cc(C(C)(C)C#N)c2)cc1C#Cc1cnc2c(Nc3cn[nH]c3)cccn12 [Example 82, 5-((8-((1H-pyrazol-4-yl)amino)imidazo[1,2-a]pyridin-3-yl)ethynyl)-N-(3-(2-cyanopropan-2-yl)-5-(4-methyl-3-oxopiperazin-1-yl)phenyl)-2-fluoro-4-methylbenzamide] | 500 to 5000 | > 100 | < 10 | 100 | < 10
< 50 | Cc1cc(F)c(C(=O)Nc2cc(Oc3ccncc3)cc(C(C)(C)C#N)c2)cc1C#Cc1cnc2c(Nc3cn[nH]c3)cccn12 [Example 83, 5-((8-((1H-pyrazol-4-yl)amino)imidazo[1,2-a]pyridin-3-yl)ethynyl)-N-(3-(2-cyanopropan-2-yl)-5-(pyridin-4-yloxy)phenyl)-2-fluoro-4-methylbenzamide] | 500 to 5000 | 100 | < 10 | 100 | < 10
50 to 500 | Cc1cc(F)c(C(=O)Nc2cc(CN3CCN(C)CC3)cc(C(C)(C)C#N)c2)cc1C#Cc1cnc2c(Nc3cn[nH]c3)cccn12 [Example 84, 5-((8-((1H-pyrazol-4-yl)amino)imidazo[1,2-a]pyridin-3-yl)ethynyl)-N-(3-(2-cyanopropan-2-yl)-5-((4-methylpiperazin-1-yl)methyl)phenyl)-2-fluoro-4-methylbenzamide] | 500 to 5000 | > 100 | < 10 | 100 | < 10
50 to 500 | Cc1cc(F)c(C(=O)Nc2cc(CN3CCC(N(C)C)C3)cc(C(C)(C)C#N)c2)cc1C#Cc1cnc2c(Nc3cn[nH]c3)cccn12 (stereo not drawn) [Example 85, 5-((8-((1H-pyrazol-4-yl)amino)imidazo[1,2-a]pyridin-3-yl)ethynyl)-N-(3-(2-cyanopropan-2-yl)-5-((3-(dimethylamino)pyrrolidin-1-yl)methyl)phenyl)-2-fluoro-4-methylbenzamide] | 500 to 5000 | > 100 | < 10 | 100 | < 10
< 50 | Cc1cc(F)c(C(=O)Nc2cc(CN3CCN(CCO)CC3)cc(C(C)(C)C#N)c2)cc1C#Cc1cnc2c(Nc3cn[nH]c3)cccn12 [Example 86, 5-((8-((1H-pyrazol-4-yl)amino)imidazo[1,2-a]pyridin-3-yl)ethynyl)-N-(3-(2-cyanopropan-2-yl)-5-((4-(2-hydroxyethyl)piperazin-1-yl)methyl)phenyl)-2-fluoro-4-methylbenzamide] | 500 to 5000 | 100 | < 10 | 100 | < 10
50 to 500 | Cc1cc(F)c(C(=O)Nc2cc(CN3CCN(S(C)(=O)=O)CC3)cc(C(C)(C)C#N)c2)cc1C#Cc1cnc2c(Nc3cn[nH]c3)cccn12 [Example 87, 5-((8-((1H-pyrazol-4-yl)amino)imidazo[1,2-a]pyridin-3-yl)ethynyl)-N-(3-(2-cyanopropan-2-yl)-5-((4-(methylsulfonyl)piperazin-1-yl)methyl)phenyl)-2-fluoro-4-methylbenzamide] | > 5000 | > 100 | < 10 | 100 | < 10
50 to 500 | Cc1cc(F)c(C(=O)Nc2cc(CN3CCN(C)C(=O)C3)cc(C(C)(C)C#N)c2)cc1C#Cc1cnc2c(Nc3cn[nH]c3)cccn12 [Example 88, 5-((8-((1H-pyrazol-4-yl)amino)imidazo[1,2-a]pyridin-3-yl)ethynyl)-N-(3-(2-cyanopropan-2-yl)-5-((4-methyl-3-oxopiperazin-1-yl)methyl)phenyl)-2-fluoro-4-methylbenzamide] | 500 to 5000 | > 100 | < 10 | > 100 | < 10
< 50 | Cc1cc(F)c(C(=O)Nc2cc(Cn3cncn3)cc(C(C)(C)C#N)c2)cc1C#Cc1cnc2c(Nc3cn[nH]c3)cccn12 [Example 89, N-(3-((1H-1,2,4-triazol-1-yl)methyl)-5-(2-cyanopropan-2-yl)phenyl)-5-((8-((1H-pyrazol-4-yl)amino)imidazo[1,2-a]pyridin-3-yl)ethynyl)-2-fluoro-4-methylbenzamide] | > 5000 | 100 | < 10 | 100 | < 10
< 50 | Cc1cc(F)c(C(=O)Nc2ccc(CN3CCN(C)CC3)c(C(C)(C)C#N)c2)cc1C#Cc1cnc2c(Nc3cn[nH]c3)cccn12 [Example 90, 5-((8-((1H-pyrazol-4-yl)amino)imidazo[1,2-a]pyridin-3-yl)ethynyl)-N-(3-(2-cyanopropan-2-yl)-4-((4-methylpiperazin-1-yl)methyl)phenyl)-2-fluoro-4-methylbenzamide] | 50 to 500 | 100 | < 10 | 100 | < 10
50 to 500 | Cc1cc(F)c(C(=O)Nc2ccc(CN3CCC(N(C)C)C3)c(C(C)(C)C#N)c2)cc1C#Cc1cnc2c(Nc3cn[nH]c3)cccn12 (stereo not drawn) [Example 91, 5-((8-((1H-pyrazol-4-yl)amino)imidazo[1,2-a]pyridin-3-yl)ethynyl)-N-(3-(2-cyanopropan-2-yl)-4-((3-(dimethylamino)pyrrolidin-1-yl)methyl)phenyl)-2-fluoro-4-methylbenzamide] | 500 to 5000 | > 100 | < 10 | > 100 | < 10
< 50 | Cc1cc(F)c(C(=O)Nc2ccc(CN3CCN(CCO)CC3)c(C(C)(C)C#N)c2)cc1C#Cc1cnc2c(Nc3cn[nH]c3)cccn12 [Example 92, 5-((8-((1H-pyrazol-4-yl)amino)imidazo[1,2-a]pyridin-3-yl)ethynyl)-N-(3-(2-cyanopropan-2-yl)-4-((4-(2-hydroxyethyl)piperazin-1-yl)methyl)phenyl)-2-fluoro-4-methylbenzamide] | 500 to 5000 | 100 | < 10 | 100 | < 10
50 to 500 | Cc1cc(F)c(C(=O)Nc2ccc(CN3CCN(C)C(=O)C3)c(C(C)(C)C#N)c2)cc1C#Cc1cnc2c(Nc3cn[nH]c3)cccn12 [Example 93, 5-((8-((1H-pyrazol-4-yl)amino)imidazo[1,2-a]pyridin-3-yl)ethynyl)-N-(3-(2-cyanopropan-2-yl)-4-((4-methyl-3-oxopiperazin-1-yl)methyl)phenyl)-2-fluoro-4-methylbenzamide] | 500 to 5000 | > 100 | < 10 | > 100 | < 10
500 to 5000 | Cc1cc(F)c(C(=O)Nc2ccc(CN3CCN(S(C)(=O)=O)CC3)c(C(C)(C)C#N)c2)cc1C#Cc1cnc2c(Nc3cn[nH]c3)cccn12 [Example 94, 5-((8-((1H-pyrazol-4-yl)amino)imidazo[1,2-a]pyridin-3-yl)ethynyl)-N-(3-(2-cyanopropan-2-yl)-4-((4-(methylsulfonyl)piperazin-1-yl)methyl)phenyl)-2-fluoro-4-methylbenzamide] | > 5000 | > 100 | < 10 | > 100 | < 10
< 50 | Cc1cn(-c2cc(NC(=O)c3cc(C#Cc4cnc5c(Nc6cn[nH]c6)cccn45)c(C)cc3F)cc(C(F)(F)F)c2)cn1 [Example 95, 5-((8-((1H-pyrazol-4-yl)amino)imidazo[1,2-a]pyridin-3-yl)ethynyl)-2-fluoro-4-methyl-N-(3-(4-methyl-1H-imidazol-1-yl)-5-(trifluoromethyl)phenyl)benzamide] | > 5000 | 100 | < 10 | 100 | < 10
50 to 500 | Cc1cc(F)c(C(=O)Nc2cc(-c3cnn(C)c3)cc(C(F)(F)F)c2)cc1C#Cc1cnc2c(Nc3cn[nH]c3)cccn12 [Example 96, 5-((8-((1H-pyrazol-4-yl)amino)imidazo[1,2-a]pyridin-3-yl)ethynyl)-2-fluoro-4-methyl-N-(3-(1-methyl-1H-pyrazol-4-yl)-5-(trifluoromethyl)phenyl)benzamide] | > 5000 | > 100 | 100 | > 100 | < 10
50 to 500 | Cc1cc(F)c(C(=O)Nc2cc(-c3ccncc3)cc(C(F)(F)F)c2)cc1C#Cc1cnc2c(Nc3cn[nH]c3)cccn12 [Example 97, 5-((8-((1H-pyrazol-4-yl)amino)imidazo[1,2-a]pyridin-3-yl)ethynyl)-2-fluoro-4-methyl-N-(3-(pyridin-4-yl)-5-(trifluoromethyl)phenyl)benzamide] | > 5000 | > 100 | < 10 | 100 | < 10
50 to 500 | Cc1cc(F)c(C(=O)Nc2cc(-c3cccnc3)cc(C(F)(F)F)c2)cc1C#Cc1cnc2c(Nc3cn[nH]c3)cccn12 [Example 98, 5-((8-((1H-pyrazol-4-yl)amino)imidazo[1,2-a]pyridin-3-yl)ethynyl)-2-fluoro-4-methyl-N-(3-(pyridin-3-yl)-5-(trifluoromethyl)phenyl)benzamide] | > 5000 | > 100 | < 10 | 100 | < 10

Reference: patent US12673945B2, “3-((8-((1H-pyrazol-4-yl)amino)imidazo[1,2-a]pyridin-3-yl)ethinyl)-n-phenylbenzamide derivative, method for preparing same, and pharmaceutical composition containing same as active ingredient for prevention or treatment of cancer” (DAEGU-GYEONGBUK MEDICAL INNOVATION FOUNDATION, priority 2020, dated 2026)
